Measurements from patent publication US4980349A, “Sulphonamides derived from diarylmethanes, the processes for preparing them and pharmaceutical compositions containing them” (SANOFI, priority 1986, dated 1990).
Like-named read-outs stand apart in the source and are kept apart here.

Legend:
[1] = test system: rat hind foot kaolin-induced oedema; test: Kaolin-induced arthritis test, first experiment (decrease in inflammation, foot volume); type: in vivo; settings: 1 h before kaolin, Table IX, read-out: percentage decrease in the inflammation; for change in vivo at 25 mg/kg: 25 mg/kg oral; for change in vivo at 50 mg/kg: 50 mg/kg oral; for change in vivo at 100 mg/kg: 100 mg/kg oral
Description: The […] of 0.05 ml of a sterile 10% strength suspension of kaolin into the metatarsal flexor sheath of the hind foot of a rat initially induces an oedematous reaction. An inflammatory arthritis then forms.
The early oedematous reaction appears from the first hour, and reaches its maximum between the fourth hour and the sixth hour. This is the manifestation of interest. The assessment of the volume of the foot enables the action of substances on the oedematous reaction to be studied. The measurements are carried out using a Giono and Chevilard plethysmometer.
The test products are administered orally (stomach tube) one hour before the injection of the kaolin.
The results are expressed as a percentage decrease in the inflammation in the treated animals compared with a control series of animals.
The batches are of 10 animals per dose and 10 control animals.
The figures shown represent the mean of 10 animals.

[2] = test system: rat hind foot carragheenin-induced oedema; test: Carragheenin-induced oedema test; type: in vivo; settings: 3 h, first experiment, Table X, read-out: percentage inhibition of the inflammation; for change in vivo at 25 mg/kg: 25 mg/kg oral; for change in vivo at 50 mg/kg: 50 mg/kg oral; for change in vivo at 100 mg/kg: 100 mg/kg oral
Description: In this test, 10 rats are used per test compound of the invention. Control batches of 10 rats also receive either the comparative compound (ketoprofen) or exclusively an NaCl solution.
The compounds of the invention are administered orally (stomach tube) one hour before the injection of carragheenin.
The carragheenin is suspended at a concentration of 1% in a 0.9% isotonic sodium chloride solution. The volume injected into the rat's foot is 0.20 ml.
The volume of the foot is measured before the injection and 3 hours later. The antagonistic effect of the products towards carragheenin is reflected in the inhibition of the volume of the oedema compared with control rats. The latter receive only isotonic NaCl solution under identical conditions.

[3] = test system: pain threshold of brewer's yeast inflamed rat hind foot; test: Randall and Sellitto's test (analgesic activity); type: in vivo
Description: Inflammation increases the sensitivity to pain, in particular to pressure, and analgesics raise the threshold of the sensitivity.
The inflammation is obtained by injecting 0.1 ml of a 20% strength aqueous suspension of brewer's yeast under the plantar aponeurosis of one of the hind feet. […] The pain threshold is assessed in terms of the force necessary and sufficient to initiate a characteristic reaction of withdrawing the foot.
The sensitivity to pain of the inflamed foot reaches a plateau 4 hours after the injection of the brewer's yeast, and then remains stable until the 6th hour. The pain threshold of the inflamed foot in control rats weighing 140 g is reached for pressures of 50 to 60 g, whereas it is around 160 g for the intact foot.
The action of the substance administered orally to series of 10 rats is expressed in terms of the percentage increase in the mean pain threshold, compared with that measured in the rats of a control series of 10 animals which have not received a compound of the invention.
The test products are administered orally (stomach tube) one hour before the injection of brewer's yeast.
The comparative compound used is ketoprofen.

[4] = test system: foreign-body (sponge) granuloma in rats; test: Experimental granuloma induced by foreign body, histological study; type: in vivo, Wistar rats; settings: 8 days, Table XI
Description: This test consists in studying the subacute cellular phase which is developed in the 8 days which follow the implantation of a foreign body, a sponge of non-resorbable plastic, in the dorsal subcutaneous connective tissue in rats.
The granulomas formed are removed 8 days after the implantation; a histological study is carried out after fixing the tissue and staining sections with hematein/ eosin. The observation is more especially concerned with the cell population of the primary phase of the formation of the granulation tissue: the reticulohistocytic cells, lymphocytes and more especially the macrophages.
The animals used are Wistar rats weighing 120-140 g and of the same origin, maintained under the same conditions of housing throughout the treatment (8 days).
The compounds of the invention are administered orally, in a gum suspension, in the morning in a fasted state, using an oesophageal tube.
After 8 days of treatment, the rats are sacrificed by decapitation and the granulomas removed and prepared for the purpose of histological examination.
The experiment conditions are as follows:
The animals are distributed in batches of 10;
Each test product is administered at 2 doses, of 50 and 100 mg, respectively, to 2 batches of 10 animals;
Ketoprofen is used by way of reference product at the same 2 doses and under the same conditions; and
A batch of 10 control animals receives no treatment.
In this experiment, on the one hand a histological study of the granulomas is performed by sampling on day 8 (results recorded in Table XIa), and on the other hand a study of the weight of the granulomas was performed 10 days after the implantation (results recorded in Table XIb).

[5] = test system: biosynthesis of leukotrienes B4 (LTB4), human polymorphonuclear leukocytes; test: Biosynthesis of LTB4, isomers and oxidized metabolites in human polymorphonuclear leukocytes; type: cell-based; settings: Leukocyte, first experiment
Description: Polymorphonuclear leukocytes are isolated from human blood and used during the 6 hours following the withdrawal. The viability of the cells is checked by trypan blue exclusion.
5×10^6 cells are incubated for 10 minutes at 37° C. in the presence of the test product dissolved in DMSO, and are stimulated with ionophore A 23187 (Galbiochem, 10 μM) in PBS buffer at pH 7.4, Ca^2+ and Mg^2+ =1 μM.
100 ng of prostaglandin B2 (PGB2), dissolved in methanol, are added at the end of the reaction to act as an internal standard.
On centrifugation, the culture supernatant is withdrawn. The latter is retrieved under argon and stored at -80° C. until analysed by HPLC.
This analysis is carried out by injecting 250 μl onto a 5 μm ODS ultrasphere column (Beckmann), with a gradient of acetonitrile (20-80%) in water, at pH 7.4.
The amounts of the different products which absorb at 269 nm, i.e. leukotrienes B4 (LTB4), isomers of LTB4 and oxidized metabolites of LTB4, are estimated by comparison with the internal standard.
The test product is used at a concentration of 40 μM.
They are expressed either as a percentage inhibition, or as a percentage increase in the production of LTB4, isomers of LTB4 and oxidized metabolites of LTB4 (designated by +).
The experimental model is the same as that described in Section 2.1. Other products are tested by comparison with the compound of the invention no. 1574, used as a control.

[6] = 25 mg/kg oral, first experiment, Table XII, read-out: percentage increase in the mean pain threshold
[7] = 50 mg/kg oral, first experiment, Table XII, read-out: percentage increase in the mean pain threshold
[8] = 100 mg/kg oral, first experiment, Table XII, read-out: percentage increase in the mean pain threshold
[9] = both doses (50 and 100 mg/kg) oral
[10] = read-out: Isomers of LTB4: percentage inhibition (+ : percentage increase in the production)
[11] = read-out: LTB4: percentage inhibition (+ : percentage increase in the production)
[12] = read-out: Oxidized metabolites of LTB4: percentage inhibition (+ : percentage increase in the production)

O=C(c1ccc(Cl)cc1)c1ccccc1S(=O)(=O)NCCCN1CCOCC1 [Compound 1410]
change in vivo at 25 mg/kg [1]: -18%
change in vivo at 50 mg/kg [1]: -32%
change in vivo at 100 mg/kg [1]: -57%
change in vivo at 25 mg/kg [2]: -15%
change in vivo at 50 mg/kg [2]: -25%
change in vivo at 100 mg/kg [2]: -48%
change in vivo at 25 mg/kg [3, 6]: 19%
change in vivo at 50 mg/kg [3, 7]: 37%
change in vivo at 100 mg/kg [3, 8]: 58%
histological study of the granuloma [4, 9]: inflammatory reaction is attenuated

O=C(O)CCCCCNS(=O)(=O)c1ccc(Cl)cc1C(=O)c1ccccc1Cl [Compound 1570]
change in vivo at 25 mg/kg [1]: -10%
change in vivo at 50 mg/kg [1]: -25%
change in vivo at 100 mg/kg [1]: -52%
change in vivo at 25 mg/kg [2]: -20%
change in vivo at 50 mg/kg [2]: -29%
change in vivo at 100 mg/kg [2]: -40%
change in vivo at 25 mg/kg [3, 6]: 15%
change in vivo at 50 mg/kg [3, 7]: 25%
change in vivo at 100 mg/kg [3, 8]: 53%
histological study of the granuloma ([4]; 50 mg/kg oral): anti-inflammatory activity is exhibited
histological study of the granuloma ([4]; 100 mg/kg oral): distinct

O=C(O)CCCCCCCCCCCNS(=O)(=O)c1ccc(C(=O)c2ccccc2)cc1 [Compound 1687]
change in vivo at 25 mg/kg [1]: -23%
change in vivo at 50 mg/kg [1]: -28%
change in vivo at 100 mg/kg [1]: -50%
inhibition at 40 µM [5, 10]: 0%
inhibition at 40 µM [5, 11]: 16%
inhibition at 40 µM [5, 12]: -30%
change in vivo at 25 mg/kg [2]: -25%
change in vivo at 50 mg/kg [2]: -30%
change in vivo at 100 mg/kg [2]: -48%
change in vivo at 25 mg/kg [3, 6]: 25%
change in vivo at 50 mg/kg [3, 7]: 35%
change in vivo at 100 mg/kg [3, 8]: 50%

O=C(O)CCCCCCCCCCNS(=O)(=O)c1cccc(C(=O)c2cc(S(=O)(=O)NCCCCCCCCCCC(=O)O)ccc2Cl)c1 [Compound 1688]
change in vivo at 25 mg/kg [1]: -25%
change in vivo at 50 mg/kg [1]: -28%
change in vivo at 100 mg/kg [1]: -48%
inhibition at 40 µM [5, 10]: -35%
inhibition at 40 µM [5, 11]: 35%
inhibition at 40 µM [5, 12]: 20%
change in vivo at 25 mg/kg [2]: -25%
change in vivo at 50 mg/kg [2]: -32%
change in vivo at 100 mg/kg [2]: -50%
change in vivo at 25 mg/kg [3, 6]: 25%
change in vivo at 50 mg/kg [3, 7]: 32%
change in vivo at 100 mg/kg [3, 8]: 50%

CC(C(=O)O)c1cccc(C(=O)c2ccccc2)c1 (stereo not shown) [Ketoprofen, ketoprofen, reference compound]
change in vivo at 25 mg/kg [1]: -30%
change in vivo at 50 mg/kg [1]: -51%
change in vivo at 100 mg/kg [1]: -73%
change in vivo at 25 mg/kg ([2]; po): -25%
change in vivo at 50 mg/kg ([2]; po): -45%
change in vivo at 100 mg/kg ([2]; po): -65%
change in vivo at 25 mg/kg ([3]; po, read-out: percentage increase in the mean pain threshold, 25 mg/kg oral, first experiment, Table XII): 22%
change in vivo at 25 mg/kg ([3]; po, read-out: percentage increase in the mean pain threshold, 25 mg/kg oral, second experiment, Table XIIa): 50%
change in vivo at 50 mg/kg ([3]; po, read-out: percentage increase in the mean pain threshold, 50 mg/kg oral, first experiment, Table XII): 55%
change in vivo at 50 mg/kg ([3]; po, read-out: percentage increase in the mean pain threshold, 50 mg/kg oral, second experiment, Table XIIa): 55%
change in vivo at 100 mg/kg ([3]; po, read-out: percentage increase in the mean pain threshold, 100 mg/kg oral, first experiment, Table XII): 78%
change in vivo at 100 mg/kg ([3]; po, read-out: percentage increase in the mean pain threshold, 100 mg/kg oral, second experiment, Table XIIa): 58%
histological study of the granuloma [4, 9]: very substantial decrease
